# Experimental data: patent US10464907B2, “Compound having HSP90 inhibitory activity or pharmaceutically acceptable salt thereof, and medical use thereof” (priority 2016, dated 2019)
# Where two headings read alike, the source gives them in different places.
# Legend:
# [1] = tested on: H1975 cells; assay: MTS cell viability in H1975 cells resistant to Gefitinib; format: cell-based; details: H1975, 3 days
# Experimental: To confirm the cell viability according to the concentration of the compound synthesized in H1975 cells (ATCC) resistant to Gefitinib, MTS [3-(4,5-dimethylthiazol-2-yl)-5-[…]carboxymethoxyphenyl)-2-(4-sulfophenyl)-2H-tetrazolium, inner salt] analysis was performed. When the cells were cultured so as to occupy 80% of the bottom of the culture dish, the cells were detached and diluted with RPMI 1640 medium to a concentration of 1.5×10^3 cells/well. Each 100 μL of the suspension was added to each well of a 96-well plate and cultured for 14 hours. Then, the medium was changed to the culture solution treated with compound of each concentration each concentration (1a-g: 0, 1, 5, 10, 30, 50 or 100 μM, 14a-I, 16a, b, 21a-f: 0, 0.01, 0.1, 1, 5, 10, 30, 50, 70 or 100 μM), and cultured for 3 days. Each 20 μL of the MTS solution was dispensed into each well and reacted for 1 hour at 37° C. in an incubator supplied with 5% CO2.
# [2] = target: HSP90α (Homo sapiens (Human), UniProt P07900); assay: Fluorescence polarization assay, binding ability to HSP90, benzamide compounds; details: GA-FITC 100 nM; read-out: HSP90 FP) (IC50; nM)
# Experimental: 1 M dithiothreitol (DTT), 10 mg/m: BGG (bovine gamma globulin) were added to hexafluorobenzene (HFB) buffer (20 mM HEPES pH 7.3, 50 mM KCl, 5 mM MgCl2, 20 mM Na2MoO4, 0.01% NP4O, 3rd distilled water) and mixed. Then, 100 nM […] (GA)-FITC (Fluorescein isothiocyanate) was added and reacted at room temperature for 10 minutes. Each 100 μL of the mixture was dispensed into the control wells of a 96-well plate, 2 μL of HSP90α was added to the remaining mixture, and each 100 μL of the other wells was dispensed. […] The binding ability of the compound to HSP90 was expressed as mP (millipolarization unit=1000 mP unit).
# [3] = tested on: HSP90 client proteins (Her2, EGFR, Met, Akt, c-Raf) and HSP70 in H1975 cells; assay: Analysis of protein expression (western blot), Compound 21f; format: cell-based
# Experimental: Compound 21f having good efficacy was selected and HSP90 client protein proliferation effect in the same cell line was confirmed, in which the HSP90 client proteins were Her2 (human EGFR-related 2), EGFR (epidermal growth factor receptor), Met and c-Raf were used.
# H1975 cells resistant to Gefitinib were cultured in a medium supplemented with 10% fetal bovine serum (FBS) for 24 hours, and the cells were detached, harvested and diluted with a RPMI 1640 medium so as to be 5×10^5 cells/well. Each 5 mL of the suspension was added to […] culture dish and cultured for 24 hours. Then, the medium was changed to the culture solution treated with each compound of concentration (21f: 0, 0.05, 0.1, 0.5 or 1 μM, GA: 1 μM), and cultured for 24 hours. After culture, the cells were harvested and centrifuged at 1300 rpm for 5 minutes at 4° C., and the supernatant was removed. The pellet was washed with phosphate buffered saline, centrifuged once again under the same conditions, and the supernatant was removed. Lysis buffer was added to the remaining pellet and lysed by vortexing at 5 minute intervals for 30 minutes. The supernatant was separated by centrifugation at 16000 rcf for 4 minutes at 4° C., and proteins were quantified using BCA ([…]) kit. SDS-PAGE (sodium dodecylsulfate-polyacrylamide gel electrophoresis) was performed using 10, 12% running gel and 4% stacking gel (10 mA per gel). The separated proteins were transferred to an immunoblot PVDF membrane (polyvinylidene fluoride membrane) at 100 V for 75 minutes. The membranes were blocked with 5% skim milk solution for 2 hours and then added a primary antibody diluted in the ratio of 1: 750-1,000 in 0.1% tween-20 solution and reacted at 4° C. for 12 hours. After washing three times with TBS-T (Tris-buffered saline and Tween 20 containing Tween 20) and detected with an image analyzer using ECL (enhanced chemiluminescence) solution.
# [4] = tested on: HSP90 client protein of EGFR, Her2, Met, Akt, c-Raf, Cpk4; assay: Protein expression analysis (western blotting), Compound 17; format: cell-based; details: 24 hours, FIG. 4
# Experimental: Next, the cells were dispensed into 100 mm culture dishes (1×10^6/dish) and adhered to the bottom surface overnight. Compound 17 at a concentration of 0.05, 0.1, 0.5 or 1 μM was added to the cells, followed by further culture for 24 hours.
# In addition, cells were treated with DMSO (1%) or geladinamycin (1 μM) as a control and cultured for 24 hours.
# The cultured cells were harvested and lysed in ice-cold lysis buffer (23 mM Tris-HCl pH 7.6, 130 mM NaCl, 1% NP40, 1% sodium deoxycholate, 0.1% SDS (sodium dodecylsulfate)), and 30 μg of the lysate was separated by SDS-PAGE (SDS-polyacrylamide gel electrophoresis) and transferred to a PVDF membrane (Bio-Rad).
# Membranes were blocked with TBST (Tween 20 containing Tris-Buffered Saline) containing 5% skim milk and incubated with the respective primary antibodies [EGFR (Epidermal growth factor receptor), Her2 (human epidermal growth factor receptor type 2), Met, N-cadherin, E-cadherin, α-tubulin, acetyl-α-tubulin, protein kinase B (Akt), c-Raf, Cdk4 (Cyclin-dependent kinase 4), HSP90, HSP70, PARP (Poly ADT-ribose Polymerase), caspase 3, cleaved caspase 3, truncated caspase 8, B-cell lymphoma 2 (Bcl-2), Bax or β-Actin, purchased from Cell Signaling Technology (USA)].
# After binding to a secondary antibody conjugated with horseradish peroxidase, the protein was visualized by ECL (electrochemiluminescence, GE healthcare, USA).
# [5] = tested on: H1975; assay: MTS cell proliferation / survival assay; format: cell-based
# Experimental: Sk-Br3 (Korean cell line bank), a breast cancer cell, and H1975 cell (ATCC), a nonsmall cell lung cancer, were cultured in RPMI 1640 containing 25 mM HEPES (4-(2-hydroxyethyl)-1-piperazineethanesulfonic acid) and RPMI 1640 containing L-glutamine (containing streptomycin ([…]), penicillin (100 units/mL) and 10% fetal bovine serum (FBS)).
# The cells were cultured under a humidified atmosphere of 37° C. and 5% CO2.
# Next, non-metastatic lung cancer cells were treated with Compound 17 and the cell proliferation rate or cell survival rate was measured by MTS [3-(4,5-dimethylthiazol-2-yl)-5-(3-carboxymethoxyphenyl)-2-2H-tetrazolium, inner salt] analysis.
# Cells were dispensed in 96-well plates at 3000 cell/well (Sk-Br3) and 2000 cell/well (H1975), and 100 μL of the medium was added per well and then was incubated overnight.
# Cell proliferation was evaluated using the Promega Cell Titer 96 Aqueous One Solution cell proliferation assay.
# After compound and cell culture, 20 μL of assay substrate solution was added to each well and incubated at 37° C. for an additional 1 hour.
# Cell proliferation was confirmed by measuring the absorbance at 490 nm using a microplate reader (Tecan Infinite F200 Proplate reader).
# [6] = LogP; format: physicochemical; details: called measured values of LogP
# Experimental: All experimental data were analyzed using Prism software (version 5.0, Graphpad Software, San Diego, Calif.). In addition, tPSA (Topological Polar Surface Area) calculated using Chemdraw software and the measured values of LogP are shown in Tables 1 and 2 below.
# [7] = tested on: H1975; assay: H1975 colony formation (clogenic assay); format: cell-based; details: 0.05 μM, 3 weeks, FIG. 3
# Experimental: H1975 cells were treated with Compound 17 at a concentration of 0.05 or 0.5 μM for 3 weeks and then clogenic assay was performed.
# First, RPMI1640 medium (10% FBS, 0.48% agar) was added to a 6-well plate and hardened, and then, 10000 cells (H1975) were dispensed in a medium containing RPMI1640 medium (10% FBS, 0.33% agar) and solidified. After solidification, the cells were treated with compound at a concentration of 0.05 or 0.5 μM for 24 hours, followed by culturing for 3 weeks, and then colony formation was confirmed using a crystal violet staining solution.
Compound,EC50 ([1]; read-out: H1975 (EC50; μM)) [µM],EC50 ([1]; read-out: H1975 EC50) [µM],IC50 [2] [nM],"expression of HSP90 client proteins ([3]; H1975, 0.05-1 μM, 24 hours, FIG. 5)","concentration at which expression of HSP70 was increased ([3]; H1975, 24 hours) [µM]","concentration at which expression was significantly decreased: EGFR ([3]; H1975, 24 hours) [µM]","concentration at which expression was significantly decreased: Her2, Met, and Akt ([3]; H1975, 24 hours) [µM]",HSP protein inhibition / degradation of HSP90 client protein ([4]; 0.05-1 μM),concentration at which most of the client proteins were denatured [4] [nM],"cell death (cell survival) ([5]; 72 hours, FIG. 2B)","IC50 ([5]; Homo sapiens, NCI-H1975, read-out: IC50 for H1975) [nM]","inhibition at 10 µM ([5]; Homo sapiens, NCI-H1975, read-out: Inhibition rate at 10 μM (%)) [%]","inhibition at 30 µM ([5]; Homo sapiens, NCI-H1975, read-out: Inhibition rate at 30 μM (%)) [%]","proliferation rate of the cells ([5]; non-small cell lung cancer cells, 1, 2 and 3 days, FIG. 2A)",logP [6],colony formation of H1975 [7]
"CCCNC(=O)c1ccc(CN(C)C(=O)c2cc(C(C)C)c(O)cc2O)cc1 [Compound 21f, 2,4-dihydroxy-5-isopropyl-N-methyl-N-(4-(propylcarbamoyl)benzyl) benzamide]",0.42,0.42,5.3,inhibited in a concentration-dependent manner,0.5,0.1,0.5,,,,,,,,,
"CC(C)c1cc(C(=O)N2CCN(C)CC2c2ccccc2)c(O)cc1O (stereo not shown) [Compound 17, (2,4-dihydroxy-5-isopropylphenyl)(4-methyl-2-phenylpiperazin-1-yl)methanone]",,,,,,,,inhibited HSP protein in concentration-dependent manner,500,cell death was also observed,98000,72.1,77.6,inhibited in a concentration-dependent manner,3.8,inhibited
